Results reported in patent publication US12116614B2, “Methods for determining antibiotic sensitivity” (priority 2020, dated 2024).
Entries after “also recorded” stand apart in the source; their conditions may differ.

How the values were obtained:
A. baumanii [1] = experiment: Relative percent killing of planktonic versus anti-DNABII NRel by top-line antibiotics; assay type: cell-based; conditions: 16-hour biofilms, HuTipMab 30 minutes, antibiotic 2 hours
Method: FIGS. 11A and 11B show relative percent killing of planktonic versus anti-DNABII NRel of five diverse species of human pathogens by each of the three current top-line antibiotics used to treat individuals with disease due to the indicated pathogen. Using the methods described herein, planktonic bacteria were recovered mid-log phase. NRel were induced by incubation of 16-hour biofilms with HuTipMab for 30 minutes. Planktonic and NRel populations were then incubated with each of three top-line antibiotics for 2 hours to determine relative percent killing. […] See boxed data in FIG. 11B for NTHI and S. aureus.

[2] = system: planktonic P. aeruginosa isolate JG1; experiment: MIC for planktonic clinical isolate; assay type: cell-based; conditions: planktonic P. aeruginosa isolate JG1 from CF sputum
Method: (§1) Here both the planktonic and anti-DNABII NRel of JG1 were incubated with ¼ of the indicated MIC of tobramycin.
MIC refers to minimal inhibitory concentration of an active agent such as a drug that is the lowest concentration that will inhibit the visible growth of a microorganism after overnight incubation and minimal bactericidal concentrations as the lowest concentration of an antimicrobial that will prevent the growth of an organism after subculture on antibiotic free media. Methods to determine these values are well known in the art and describe in Andrews, J. (2002) Antimicrob Chemother June; 49(6):1049.

[3] = system: P. aeruginosa isolate JG1; experiment: Killing of planktonic and anti-DNABII NRel of clinical isolate at 1/4 MIC; assay type: cell-based
Method: as §1

[4] = system: NTHI (biofilm-resident, planktonic, anti-rsPilA NRel, anti-IHF NRel); experiment: Antibiotic sensitivity of biofilm-resident, planktonic or NRel NTHI (2 h antibiotic exposure, CFU plating); assay type: cell-based, Nontypeable Haemophilus influenzae
Method: Biofilms were established for 16 hr at 37° C. as described above. For biofilm-resident NTHI: biofilms were washed twice with DPBS and incubated in sBHI supplemented with the indicated antibiotics for at 37° C. 2 h. For planktonic NTHI: NTHI were incubated in sBHI for 3 hr as described above to reach log phase of growth, then diluted to the approximate concentration of either the anti-IHF (2×10^8 CFU/ml) or anti-rsPilA NRels (3×10^8 CFU/ml) to permit comparison between anti-IHF or anti-rsPilA NRels, (see FIG. 1). Planktonic NTHI were incubated with the indicated antibiotics at 37° C. for 2 hr. For NRel NTHI: anti-IHF or anti-rsPilA NRel, generated and collected as described above were incubated at 37° C. for 2 hr with the indicated antibiotics. CFU NTHI were determined by serial dilution and plating. Amoxicillin (Sigma-Aldrich, St. Louis, MO) and clavulanate (U.S. Pharmacopeia, Rockville, MD) were used at a ratio of 2:1. Trimethoprim (Sigma-Aldrich) and sulfamethoxazole (Santa Cruz Biotech, Dallas, TX) were used at a ratio of 1:5. […] All experiments were performed at least three times on separate days with two technical replicates for each treatment and control group.
To avoid excessive manipulation or dilution of NRel NTHI, and to permit direct comparison of equal numbers of planktonic and NRel, the planktonic cell density was adjusted to the same CFU per ml as the NRel population in each experiment as follows: NTHI were incubated statically to mid log phase growth then diluted to either 3×10^8 CFU/ml for comparison with anti-rsPilA NRel collected at 6 h, or to 2×10^8 CFU/ml for comparison with anti-IHF NRel collected at 15 min (see FIG. 1). Applicant then determined the concentrations of amoxicillin (Sigma-Aldrich, St. Louis, MO) and clavulanate (U.S. Pharmacopeia, Rockville, MD), or of trimethoprim (Sigma-Aldrich) and sulfamethoxazole (Santa Cruz Biotech, Dallas, TX) that killed approximately 25% of planktonic NTHI at each density. The same antibiotic concentrations were used for the anti-IHF or anti-rsPilA NRel, the density-matched (same CFU/ml) planktonic NTHI, and the adherent biofilm for each relevant experiment. […] Applicant then assessed killing of anti-IHF or anti-rsPilA NRel by concentrations of amoxicillin plus clavulanic acid (“augmentin”, AMC) or trimethoprim plus sulfamethoxazole (TMP-SMX) that killed 25% of the planktonic NTHI at the same density.
Anti-rsPilA or anti-IHF NRel were collected and sonicated as described above. After sonication for 2 min in a water bath sonicator to break up any NTHI aggregates, NRel or planktonic NTHI were incubated with the indicated antibiotics at 37° C. for 2 h, then serially diluted and plated on chocolate agar to quantify viable NTHI. To assay biofilm-resident NTHI, biofilms were established for 16 h at 37° C. as described above, washed twice with DPBS and incubated in sBHI supplemented with the indicated antibiotics at 37° C. After 2 h, biofilm-resident NTHI were collected by forceful pipetting, sonicated for 2 min and enumerated as described above. All experiments were performed at least three times on separate days with two or three technical replicates for each treatment and control group.

[5] = system: NRel versus Non-Associated NTHI
Description: Applicant tested for this phenotype for either Amox/Clav or Trimethoprim/Sulfamethoxazole to determine when this sensitivity first appears and how long this NRel phenotype lasts (i.e. what is the window of opportunity in which to treat a patient with a biofilm disease?). Here, NRel are compared not to planktonic bacteria (due to their artificiality) but rather to “Non-Associated” bacteria which are those found in the supernatant above the biofilm but not associated with biofilm residence as this population represents those bacteria that naturally come off the biofilm or were never a part of the biofilm which is a normal aspect of the preferred bacterial lifestyle in nature. […] Box Legend: NRelAC—relative killing by Amox/Clav; NRel TS—relative killing by Trimethoprim/Sulfamethoxazole; open symbols are the same but for the non-associated populations of bacteria as now described in this legend. Data was generated with a murine anti-tip chimer antibody.
Box Legend: NRelAC—relative killing by Amox/Clav; NRel TS—relative killing by Trimethoprim/Sulfamethoxazole; open symbols are the same but for the non-associated populations of bacteria as now described in this legend. Data was generated with a murine anti-tip chimer antibody.

A. baumanii [6] = experiment: Time and dose-dependent release into NRel state from established biofilms by HuTipMab; assay type: cell-based; conditions: A. baumanii biofilm; versus HuIgG negative control
Method: (§2) FIGS. 8A to 8F show the time and dose-dependence of release of six diverse species of human pathogens into the NRel state by anti-DNABII which occurs when established biofilms are incubated with a humanized monoclonal antibody raised against a chimeric peptide identified as IhfA5-mIhfB4 tip chimer (The humanized antibody utilized in this example (identified in the Figure and herein as “HuTipMab”) comprises heavy chain 1 (HCl) and light chain 2 (LC2) as disclosed herein) but not when similarly incubated with the negative control (“HulgG” a commercially available naïve human serum of the isotype IgG).

B. cenocepacia = experiment: as above; assay type: cell-based; conditions: B. cenocepacia biofilm; versus HuIgG negative control
Method: as §2

P. aeruginosa = experiment: as above; assay type: cell-based; conditions: P. aeruginosa biofilm; versus HuIgG negative control
Method: as §2

S. aureus = experiment: as above; assay type: cell-based; conditions: S. aureus biofilm; versus HuIgG negative control
Method: as §2

S. pneumoniae = experiment: as above; assay type: cell-based; conditions: S. pneumoniae biofilm; versus HuIgG negative control
Method: as §2

[7] = system: nontypeable H. influenzae (NTHI); experiment: as above; assay type: cell-based; conditions: NTHI biofilm; versus HuIgG negative control
Method: as §2

[8] = after exposure to anti-DNABII antibody

NC[C@H]1O[C@H](O[C@H]2[C@H](O)[C@@H](O[C@H]3O[C@H](CO)[C@@H](O)[C@H](N)[C@H]3O)[C@H](N)C[C@@H]2N)[C@H](N)C[C@@H]1O [tobramycin]
relative killing of anti-DNABII NRel versus planktonic (A. baumanii [1]): not killed significantly greater
MIC [2]: 4086 μg tobramycin/ml
killing of anti-DNABII NRel of JG1 compared to planktonic ([3]; 1/4 MIC tobramycin, n=3, p≤0.01): significantly more sensitive to killing
planktonic JG1 killed ([3]; 1/4 of the MIC of tobramycin): ~25%

amoxicillin and clavulanic acid [A/C]
sensitivity of biofilm-resident NTHI to killing ([4]; 16 h biofilm, 2 h antibiotic): minimal sensitivity
sensitivity to killing of anti-IHF NRel compared to biofilm-resident NTHI ([4]; NRel after 15 min anti-IHF, 2 h antibiotic): significantly more sensitive
sensitivity to killing of anti-IHF NRel compared to planktonic NTHI ([4]; NRel after 15 min anti-IHF, 2 h antibiotic at concentration killing ~20-25% of planktonic NTHI): significantly more sensitive
sensitivity to killing of anti-rsPilA NRel compared to biofilm-resident NTHI ([4]; NRel after 6 h anti-rsPilA, 2 h antibiotic): significantly more sensitive
sensitivity to killing of anti-rsPilA NRel compared to planktonic NTHI ([4]; NRel after 6 h anti-rsPilA, 2 h antibiotic at concentration killing ~20-25% of planktonic NTHI): only equally as sensitive; also recorded: only as equally as sensitive
sensitivity to killing of anti-rsPilA NRel compared to planktonic NTHI ([4]; NRel after 6 h anti-rsPilA, 2 h antibiotic at concentration killing ~20-25% of planktonic NTHI, listed as AMC): only equally as sensitive
sensitivity to killing of time-matched anti-rsPilA NRel compared to planktonic NTHI ([4]; NRel collected after 2 h, TMP-SMX 0.09 and 0.45 μg per ml, AMC 0.3 and 0.15 μg per ml, listed as AMC): only equally as sensitive; also recorded: equally susceptible
sensitivity to killing of time-matched anti-IHF NRel compared to planktonic NTHI ([4]; NRel collected after 2 h, TMP-SMX 0.94 and 4.7 μg/ml, AMC 2.5 and 1.25 μg/ml, listed as AMC): significantly more sensitive; also recorded: significantly more susceptible
sensitivity of anti-DNABII NRel to killing compared to Non-Associated bacteria ([5]; NRel induced with murine anti-tip chimer antibody): significantly greater sensitivity
time at which sensitivity of anti-DNABII NRel reaches a maximum [5, 8]: ≤ 2 h
time at which significantly greater sensitivity of anti-DNABII NRel occurs [5, 8]: ≤ 5 min
time until which greater sensitivity of anti-DNABII NRel lasts [5, 8]: ~3 h
time by which greater sensitivity of anti-DNABII NRel wanes ([5]; post exposure to anti-DNABII antibody): ≤ 6 h

B1: HuTipMab (antibody)
heavy: EVQLVESGGGLVQPGGSLRLSCAASGFTFRTYAMSWVRQAPGKGLEWVATIGSDRRHTYYPDSVKGRFTISRDNSKNTLYLQMNSLRAEDTAVYYCVGPYDGYYGEFDYWGQGTLVTVSSASTKGPSVFPLAPSSKSTSGGTAALGCLVKDYFPEPVTVSWNSGALTSGVHTFPAVLQSSGLYSLSSVVTVPSSSLGTQTYICNVNHKPSNTKVDKKVEPKSCDKTHTCPPCPAPELLGGPSVFLFPPKPKDTLMISRTPEVTCVVVDVSHEDPEVKFNWYVDGVEVHNAKTKPREEQYNSTYRVVSVLTVLHQDWLNGKEYCKVSNKALPAPIEKTISKAKGQPREPQVYTLPPSREEMTKNQVSLTCLVKGFYPSDIAVEWESNGQPENNYKTTPPVLDSDGSFFLYSKLTVDKSRWQQGNVFSCSVMHEALHNHYTQKSLSLSPG
light: DVVMTQSPLSLPVTLGQPASISCRSSQSLLDSDGKTFLNWLQQRPGQSPRRLIYLVSKRDSGVPDRFSGSGSGTDFTLKISRVEAEDVGVYYCWQGTHFPYTFGQGTKLEIKRTVAAPSVFIFPPSDEQLKSGTASVVCLLNNFYPREAKVQWKVDNALQSGNSQESVTEQDSKDSTYSLSSTLTLSKADYEKHKVYACEVTHQGLSSPVTKSFNRGEC
release into the NRel state over time (A. baumanii [6]): jump in the number of NRel at 30 mins regardless of dose
release into the NRel state over time (B. cenocepacia): jump in the number of NRel at 30 mins regardless of dose
release into the NRel state over time (P. aeruginosa): gradual, more linear increase over time
release into the NRel state over time (S. aureus): jump in the number of NRel at 30 mins regardless of dose
release into the NRel state over time (S. pneumoniae): gradual, more linear increase over time
release into the NRel state over time [7]: jump in the number of NRel at 30 mins regardless of dose
